Patent US8362022B2, “Selective subtype alpha 2 adrenergic agents and methods for use thereof” (Allergan, Inc., priority 2008, dated 2013)
Read-outs that look alike come from different tables or passages of the source.

How the values were obtained:
Type in all cases: cell-based
[1] = target: T1, alpha 2B receptor (Homo sapiens, UniProt P18089); assay: RSAT assay (Receptor Selection and Amplification Technology), Alpha 2B; settings: for Intrinsic Activity efficacy Alpha 2B: value in parentheses, ratio of maximal effect to that of brimonidine
T1 construct: expressed in transfected cells; host or cells: NIH-3T3
T1 sequence (P18089 1-450): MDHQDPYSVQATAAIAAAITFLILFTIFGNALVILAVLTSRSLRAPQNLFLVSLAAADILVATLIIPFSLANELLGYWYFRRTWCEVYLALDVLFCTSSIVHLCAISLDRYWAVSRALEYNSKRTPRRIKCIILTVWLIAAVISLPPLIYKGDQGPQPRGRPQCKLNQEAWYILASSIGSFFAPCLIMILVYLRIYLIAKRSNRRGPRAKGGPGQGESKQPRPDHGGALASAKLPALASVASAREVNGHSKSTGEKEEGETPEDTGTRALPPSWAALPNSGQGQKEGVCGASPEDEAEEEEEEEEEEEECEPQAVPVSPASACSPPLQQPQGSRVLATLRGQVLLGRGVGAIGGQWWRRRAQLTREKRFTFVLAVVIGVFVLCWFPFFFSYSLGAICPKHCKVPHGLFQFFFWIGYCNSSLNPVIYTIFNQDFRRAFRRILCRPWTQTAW
Procedure: (§1) The RSAT assay measures a receptor-mediated loss of contact inhibition that results in selective proliferation of receptor-containing cells in a mixed population of confluent cells. The increase in cell number is assessed with an appropriate transfected marker gene such as β-galactosidase, the activity of which can be easily measured in a 96-well format. Receptors that activate the G protein, Gq, elicit this response. Alpha 2 receptors, which normally couple to Gi, activate the RSAT response when coexpressed with a hybrid Gq protein that has a Gi receptor recognition domain, called Gq/i5.
(§2) NIH-3T3 cells are plated at a density of 2×10^6 cells in 15 cm dishes and maintained in Dulbecco's modified Eagle's medium supplemented with 10% calf serum. One day later, cells are cotransfected by calcium phosphate precipitation with mammalian expression plasmids encoding p-SV-β-galactosidase (5-10 μg), receptor (1-2 μg) and G protein (1-2 μg). 40 μg salmon sperm DNA may also be included in the transfection mixture. […] Cells are thawed and 100 μl added to 100 μL aliquots of various concentrations of drugs in triplicate in 96-well dishes. Incubations continue 72-96 hr at 37° C. After washing with phosphate-buffered saline, β-galactosidase enzyme activity is determined by adding 200 μL of the chromogenic substrate (consisting of 3.5 mM o-nitrophenyl-β-D-galactopyranoside and 0.5% nonidet P-40 in phosphate buffered saline), incubating overnight at 30° C. and measuring optical density at 420 nm. The absorbance is a measure of enzyme activity, which depends on cell number and reflects a receptor-mediated cell proliferation. The efficacy or intrinsic activity is calculated as a ratio of the maximal effect of the drug to the maximal effect of a standard full agonist for each receptor subtype. Brimonidine, the chemical structure of which is shown below, is used as the standard agonist for the alpha 2B and alpha 2C receptors. […] NA stands for “not active” at concentrations less than 3-10 micromolar.

[2] = target: T2, Alpha 1A (Homo sapiens, UniProt P35348); assay: RSAT assay (Receptor Selection and Amplification Technology), Alpha 1A; settings: value in parentheses, ratio of maximal effect of drug to maximal effect of standard full agonist
T2 sequence (P35348 1-466): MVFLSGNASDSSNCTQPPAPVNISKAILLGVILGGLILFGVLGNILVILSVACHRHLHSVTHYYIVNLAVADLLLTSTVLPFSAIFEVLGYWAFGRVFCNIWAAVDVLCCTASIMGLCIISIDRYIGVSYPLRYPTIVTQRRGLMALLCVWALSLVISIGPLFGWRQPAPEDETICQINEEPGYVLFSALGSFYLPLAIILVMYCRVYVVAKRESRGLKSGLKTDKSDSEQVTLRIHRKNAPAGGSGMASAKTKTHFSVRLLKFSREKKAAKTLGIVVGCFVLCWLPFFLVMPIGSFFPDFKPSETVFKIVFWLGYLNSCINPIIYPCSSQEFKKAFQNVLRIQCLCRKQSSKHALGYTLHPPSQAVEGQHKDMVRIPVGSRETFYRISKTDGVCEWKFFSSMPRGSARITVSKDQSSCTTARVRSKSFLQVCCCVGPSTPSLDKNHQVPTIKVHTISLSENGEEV
Procedure: as §1, §2

[3] = target: T3, alpha 2C receptor (Homo sapiens, UniProt P18825); assay: RSAT assay (Receptor Selection and Amplification Technology), Alpha 2C; settings: for Intrinsic Activity efficacy Alpha 2C: value in parentheses, ratio of maximal effect to that of brimonidine
T3 construct: expressed in transfected cells; host or cells: NIH-3T3
T3 sequence (P18825 1-462): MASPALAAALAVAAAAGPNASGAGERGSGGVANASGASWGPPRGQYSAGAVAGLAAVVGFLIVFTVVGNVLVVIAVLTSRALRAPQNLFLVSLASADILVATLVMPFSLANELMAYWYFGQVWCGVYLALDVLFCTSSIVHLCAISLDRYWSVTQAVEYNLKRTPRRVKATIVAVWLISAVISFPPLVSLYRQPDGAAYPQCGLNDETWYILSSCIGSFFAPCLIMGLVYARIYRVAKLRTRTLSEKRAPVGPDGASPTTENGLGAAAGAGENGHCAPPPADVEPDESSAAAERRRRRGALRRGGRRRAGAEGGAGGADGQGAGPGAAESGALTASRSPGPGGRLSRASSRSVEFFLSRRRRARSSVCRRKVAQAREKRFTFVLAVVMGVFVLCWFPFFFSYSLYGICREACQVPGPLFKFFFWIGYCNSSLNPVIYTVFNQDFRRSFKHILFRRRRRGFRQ
Procedure: as §1, §2

[4] = RSAT, Table 2, read-out: Potency nM (EC50) Alpha 2B
[5] = RSAT, transfected NIH-3T3 cells with Gq/i5, Table 1, read-out: potency nM (EC50) Alpha 2B

Structure (SMILES): c1ccc(C(Cc2cccnc2)NC2=NCCN2)cc1 (stereo not shown)
- EC50 [1, 4]: 16 nM
- Intrinsic Activity efficacy Alpha 2B ([1]; RSAT, Table 2): 0.74

Structure (SMILES): Cc1cccc(C(Cc2ccccn2)NC2=NCCO2)c1C (stereo not shown)
- EC50 [1, 4]: 6.7 nM
- Intrinsic Activity efficacy Alpha 2B ([1]; RSAT, Table 2): 0.93

Structure (SMILES): Clc1cccc(C(Cc2cccnc2Br)NC2=NCCO2)c1 (stereo not shown)
- EC50 [1, 4]: 1.3 nM
- Intrinsic Activity efficacy Alpha 2B ([1]; RSAT, Table 2): 1.05

Structure (SMILES): Clc1cccc(C(Cc2cccnc2Cl)NC2=NCCO2)c1 (stereo not shown)
- EC50 [1, 4]: 0.48 nM
- Intrinsic Activity efficacy Alpha 2B ([1]; RSAT, Table 2): 1.01

Structure (SMILES): Cc1cccc(C(Cc2cccnc2Cl)NC2=NCCO2)c1 (stereo not shown)
- EC50 [1, 4]: 0.06 nM
- Intrinsic Activity efficacy Alpha 2B ([1]; RSAT, Table 2): 0.88

Structure (SMILES): Fc1cccc(C(Cc2cccnc2Cl)NC2=NCCO2)c1 (stereo not shown)
- EC50 [1, 4]: 0.09 nM
- Intrinsic Activity efficacy Alpha 2B ([1]; RSAT, Table 2): 0.87

Structure (SMILES): Clc1ncccc1CC(NC1=NCCO1)c1cccc(Br)c1 (stereo not shown)
- EC50 [1, 4]: 0.14 nM
- Intrinsic Activity efficacy Alpha 2B ([1]; RSAT, Table 2): 1.01

Structure (SMILES): Fc1ncccc1CC(NC1=NCCO1)c1cccc(Cl)c1 (stereo not shown)
- EC50 [1, 4]: 0.21 nM
- Intrinsic Activity efficacy Alpha 2B ([1]; RSAT, Table 2): 0.81

Structure (SMILES): Cc1cncc(CC(NC2=NCCO2)c2cccc(Cl)c2)c1 (stereo not shown)
- EC50 [1, 4]: 4 nM
- Intrinsic Activity efficacy Alpha 2B ([1]; RSAT, Table 2): 1.12

Structure (SMILES): Cc1cncc(CC(NC2=NCCO2)c2cccc(C)c2)c1 (stereo not shown)
- EC50 [1, 4]: 3 nM
- Intrinsic Activity efficacy Alpha 2B ([1]; RSAT, Table 2): 1.1

Structure (SMILES): c1ccc(C(Cc2cccnc2)NC2=NCCO2)cc1 (stereo not shown)
- EC50 [1]: 4.5 nM
- Intrinsic Activity efficacy Alpha 2B ([1]; RSAT, Table 2): 0.76

Structure (SMILES): COc1cccc(C(Cc2cccnc2)NC2=NCCO2)c1 (stereo not shown)
- EC50 [1, 4]: 56 nM
- Intrinsic Activity efficacy Alpha 2B ([1]; RSAT, Table 2): 0.65

Structure (SMILES): Clc1cccc(C(Cc2cccnc2)NC2=NCCO2)c1Cl (stereo not shown)
- EC50 [1, 4]: 5.6 nM
- Intrinsic Activity efficacy Alpha 2B ([1]; RSAT, Table 2): 0.89

Structure (SMILES): Cc1cccc(C(Cc2cccnc2)NC2=NCCO2)c1 (stereo not shown)
- EC50 [1, 4]: 8.2 nM
- Intrinsic Activity efficacy Alpha 2B ([1]; RSAT, Table 2): 1.24

Structure (SMILES): Cc1c(Br)cncc1CC(NC1=NCCO1)c1cccc(Cl)c1 (stereo not shown)
- EC50 [1, 4]: 1.9 nM
- Intrinsic Activity efficacy Alpha 2B ([1]; RSAT, Table 2): 1.35

Structure (SMILES): Cc1cccc(C(Cc2cncc(Br)c2C)NC2=NCCO2)c1 (stereo not shown)
- EC50 [1, 4]: 2.7 nM
- Intrinsic Activity efficacy Alpha 2B ([1]; RSAT, Table 2): 1.02

Structure (SMILES): Cc1cncc(CC(NC2=NCCO2)c2cccc(Cl)c2)c1C (stereo not shown)
- EC50 [1, 4]: 8.5 nM
- Intrinsic Activity efficacy Alpha 2B ([1]; RSAT, Table 2): 0.9

Structure (SMILES): Cc1cccc(C(Cc2cncc(C)c2C)NC2=NCCO2)c1 (stereo not shown)
- EC50 [1, 4]: 3.9 nM
- Intrinsic Activity efficacy Alpha 2B ([1]; RSAT, Table 2): 1.11

Structure (SMILES): Cc1c(Cl)cncc1CC(NC1=NCCO1)c1cccc(Cl)c1 (stereo not shown)
- EC50 [1, 4]: 5.6 nM
- Intrinsic Activity efficacy Alpha 2B ([1]; RSAT, Table 2): 1.08

Structure (SMILES): c1ccc(C(Cc2ccncc2)N=C2NCCN2)cc1 (stereo not shown) [Compound 3, N-(Imidazolidin-2-ylidene)-1-phenyl-2-(pyridin-4-yl)ethanamine]
- Intrinsic Activity efficacy Alpha 1A [2]: 0.63

Structure (SMILES): Cc1cccc(C(Cc2ccncc2)N=C2NCCN2)c1C (stereo not shown) [Compound 5, 1-(2,3-Dimethylphenyl)-N-(imidazolidin-2-ylidene)-2-(pyridin-4-yl)ethanamine]
- EC50 [1]: 3.1 nM
- Intrinsic Activity efficacy Alpha 2B ([1]; RSAT, Table 1): 1.15
- EC50 [3]: 8.4 nM
- Intrinsic Activity efficacy Alpha 2C ([3]; RSAT): 0.49

Structure (SMILES): Clc1cccc(C(Cc2ccncc2)/N=C2/NCCO2)c1 (stereo not shown) [Compound 8, 1-(3-Chlorophenyl)-N-(oxazolidin-2-ylidene)-2-(pyridin-4-yl)ethanamine]
- Intrinsic Activity efficacy Alpha 1A [2]: 1.4

Structure (SMILES): COc1ccccc1C(Cc1ccncc1)N=C1NCCN1 (stereo not shown) [Compound 10, N-(Imidazolidin-2-ylidene)-1-(2-methoxyphenyl)-2-(pyridin-4-yl)ethanamine]
- Intrinsic Activity efficacy Alpha 1A [2]: 1.0

Structure (SMILES): c1ccc(C(Cc2cnccn2)/N=C2/NCCO2)cc1 (stereo not shown) [Compound 14, N-(Oxazolidin-2-ylidene)-1-phenyl-2-(pyrazin-2-yl)ethanamine]
- EC50 [1, 5]: 132 nM
- Intrinsic Activity efficacy Alpha 2B ([1]; RSAT, Table 1): 1.0
- Intrinsic Activity efficacy Alpha 1A [2]: 1.19

Structure (SMILES): c1ccc(C(Cc2cnccn2)N=C2NCCN2)cc1 (stereo not shown) [Compound 15, N-(Imidazolidin-2-ylidene)-1-phenyl-2-(pyrazin-2-yl)ethanamine]
- EC50 [1, 5]: 198 nM
- Intrinsic Activity efficacy Alpha 2B ([1]; RSAT, Table 1): 0.84
- Intrinsic Activity efficacy Alpha 1A [2]: 0.72

Structure (SMILES): Fc1c(Cl)cccc1C(Cc1ccncc1)/N=C1/NCCO1 (stereo not shown) [Compound 19, 1-(3-Chloro-2-fluorophenyl)-N-(oxazolidin-2-ylidene)-2-(pyridin-4-yl)ethanamine]
- Intrinsic Activity efficacy Alpha 1A [2]: 1.27

Structure (SMILES): Fc1c(Cl)cccc1C(Cc1ccncc1)N=C1NCCN1 (stereo not shown) [Compound 20, 1-(3-Chloro-2-fluorophenyl)-N-(imidazolidin-2-ylidene)-2-(pyridin-4-yl)ethanamine]
- Intrinsic Activity efficacy Alpha 1A [2]: 0.6

Structure (SMILES): Cc1cccc(C(Cc2cccnc2)/N=C2/NCCS2)c1C (stereo not shown) [Compound 22, 1-(2,3-Dimethylphenyl)-2-(pyridin-3-yl)-N-(thiazolidin-2-ylidene)ethanamine]
- Intrinsic Activity efficacy Alpha 1A [2]: 0.7

Structure (SMILES): Fc1cccc(C(Cc2ccncc2)/N=C2/NCCS2)c1 (stereo not shown) [Compound 23, 1-(3-Fluorophenyl)-2-(pyridin-4-yl)-N-(thiazolidin-2-ylidene)ethanamine]
- Intrinsic Activity efficacy Alpha 1A [2]: 1.36

Structure (SMILES): c1ccc([C@@H](Cc2ccncc2)N=C2NCCN2)cc1 [Compound 29, R—N-(imidazolidin-2-ylidene)-1-phenyl-2-(pyridin-4-yl)ethanamine]
- EC50 ([3]; RSAT, transfected NIH-3T3 cells with Gq/i5, NA = not active at concentrations less than 10 micromolar, read-out: potency nM (EC50) Alpha 2C): 96 nM
- Intrinsic Activity efficacy Alpha 2C ([3]; RSAT): 0.60
- Intrinsic Activity efficacy Alpha 1A [2]: 0.60

Structure (SMILES): Clc1cccc(C(Cc2ccncc2)N=C2NCCN2)c1Cl (stereo not shown) [Compound 32, 1-(2,3-Dichlorophenyl)-N-(imidazolidin-2-ylidene)-2-(pyridin-4-yl)ethanamine]
- EC50 [1, 5]: 1 nM
- Intrinsic Activity efficacy Alpha 2B ([1]; RSAT, Table 1): 1.3
- Intrinsic Activity efficacy Alpha 1A [2]: 0.52
